Measurements reported in patent US10844032B2, “Substituted benzofuran, benzothiophene and indole Mcl-1 inhibitors” (Vanderbilt University, priority 2012, dated 2020).
pKi: −log10 of the molar value.

molecular target: recombinant Mcl-1 (residues 172-327) (Homo sapiens (Human), UniProt Q07820); assay: Bak peptide fluorescence polarization anisotropy competition assay, Mcl-1; type: binding; conditions: Table 2, Ki range; FITC-Bak peptide 10 nM, Mcl-1 14 nM; read-out: Ki for inhibition of Mcl-1
Sequence (Q07820 172-327): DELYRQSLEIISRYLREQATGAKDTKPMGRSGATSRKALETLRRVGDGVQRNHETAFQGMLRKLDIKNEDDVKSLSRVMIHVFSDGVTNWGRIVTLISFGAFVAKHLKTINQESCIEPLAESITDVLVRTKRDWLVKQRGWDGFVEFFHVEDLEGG

| pKi | Structure (SMILES) |
| --- | --- |
| ≥ 7.00 | CCCn1nccc1-c1cccc2c(CCCOc3cc(C)c(Cl)c(C)c3)c(C(=O)NS(=O)(=O)c3ccccc3)[nH]c12 [Example 303, 3-(3-(4-chloro-3,5-dimethylphenoxy)propyl)-N-(phenylsulfonyl)-7-(1-propyl-1H-pyrazol-5-yl)-1H-indole-2-carboxamide] |
| ≥ 7.00 | Cc1cc(OCCCc2c(C(=O)NS(C)(=O)=O)[nH]c3cccc(Cl)c23)cc(C)c1Cl [Example 51, 4-chloro-3-(3-(4-chloro-3,5-dimethylphenoxy)propyl)-N-(methylsulfonyl)-1H-indole-2-carboxamide] |
| ≥ 7.00 | Cc1cc(OCCCc2c(C(=O)NS(C)(=O)=O)[nH]c3cccc(C)c23)cc(C)c1Cl [Example 116, 3-(3-(4-chloro-3,5-dimethylphenoxy)propyl)-4-methyl-N-(methylsulfonyl)-1H-indole-2-carboxamide] |

More lines, now with the values behind:

| Structure (SMILES) | pKi |
| --- | --- |
| Cc1cc(OCCCc2c(C(=O)NS(C)(=O)=O)[nH]c3cccc(Br)c23)cc(C)c1Cl [Example 113, 4-bromo-3-(3-(4-chloro-3,5-dimethylphenoxy)propyl)-N-(methylsulfonyl)-1H-indole-2-carboxamide] | ≥ 7.00 |
| Cc1cc(OCCCc2c(C(=O)NS(=O)(=O)c3ccccc3)[nH]c3c(-c4ccsc4C)cccc23)cc(C)c1Cl [Example 98, 3-(3-(4-chloro-3,5-dimethylphenoxy)propyl)-7-(2-methylthiophen-3-yl)-N-(phenylsulfonyl)-1H-indole-2-carboxamide] | ≥ 7.00 |
| Cc1cc(OCCCc2c(C(=O)NS(=O)(=O)CCNC(=O)c3ccco3)[nH]c3cc(Cl)ccc23)cc(C)c1Cl [Example 232, 6-chloro-3-(3-(4-chloro-3,5-dimethylphenoxy)propyl)-N-((2-(furan-2-carboxamido)ethyl)sulfonyl)-1H-indole-2-carboxamide] | ≥ 7.00 |

same assay, conditions: read-out: Ki for inhibition of Mcl-1

| pKi | Structure (SMILES) |
| --- | --- |
| 5.00 to 6.00 | Cc1cc(OCCCc2c(C(=O)NS(=O)(=O)CCNC(=O)CC3CCCCC3)[nH]c3ccccc23)cc(C)c1Cl [Example 152, 3-(3-(4-chloro-3,5-dimethylphenoxy)propyl)-N-((2-(2-cyclohexylacetamido)ethyl)sulfonyl)-1H-indole-2-carboxamide] |
| 5.00 to 6.00 | Cc1cc(OCCCc2c(C(=O)NS(C)(=O)=O)sc3cccc(Cl)c23)cc(C)c1Cl [Example 71, 4-chloro-3-(3-(4-chloro-3,5-dimethylphenoxy)propyl)-N-(methylsulfonyl)benzo[b]thiophene-2-carboxamide] |
| 6.30 to 6.52 | Cc1cc(OCCCc2c(C(=O)NS(=O)(=O)c3ccc(OCc4ccccc4)nc3)[nH]c3cc(Cl)ccc23)cc(C)c1Cl [Example 225, N-((6-(benzyloxy)pyridin-3-yl)sulfonyl)-6-chloro-3-(3-(4-chloro-3,5-dimethylphenoxy)propyl)-1H-indole-2-carboxamide] |
| 5.00 to 6.00 | Cc1ccccc1-c1ccc2c(CCCOc3cccc4ccccc34)c(C(=O)O)sc2c1 [Example 12, 3-(3-(naphthalen-1-yloxy)propyl)-6-(o-tolyl)benzo[b]thiophene-2-carboxylic acid] |
| 5.00 to 6.00 | O=C(NS(=O)(=O)c1ccc2ccccc2c1)c1oc2ccccc2c1CCCOc1cccc2ccccc12 [Example 25, 3-(3-(naphthalen-1-yloxy)propyl)-N-(naphthalen-2-ylsulfonyl)benzofuran-2-carboxamide] |
| 6.52 to 7.00 | Cc1cc(OCCCc2c(C(=O)NS(C)(=O)=O)[nH]c3cccc(C(F)(F)F)c23)cc(C)c1Cl [Example 82, 3-(3-(4-chloro-3,5-dimethylphenoxy)propyl)-N-(methylsulfonyl)-4-(trifluoromethyl)-1H-indole-2-carboxamide] |
| 6.52 to 7.00 | COc1ccccc1-c1cccc2c(CCCOc3cc(C)c(Cl)c(C)c3)c(C(=O)NS(C)(=O)=O)[nH]c12 [Example 85, 3-(3-(4-chloro-3,5-dimethylphenoxy)propyl)-7-(2-methoxyphenyl)-N-(methylsulfonyl)-1H-indole-2-carboxamide] |

More lines, now with the values behind:

| Structure (SMILES) | pKi |
| --- | --- |
| COc1ccc(Cn2cccc2C(=O)NCCS(=O)(=O)NC(=O)c2[nH]c3cc(Cl)ccc3c2CCCOc2cc(C)c(Cl)c(C)c2)cc1 [Example 249, 6-chloro-3-(3-(4-chloro-3,5-dimethylphenoxy)propyl)-N-((2-(1-(4-methoxybenzyl)-1H-pyrrole-2-carboxamido)ethyl)sulfonyl)-1H-indole-2-carboxamide] | 6.52 to 7.00 |
| CS(=O)(=O)NC(=O)c1[nH]c2cc(Cl)ccc2c1CCCOc1cccc2c1CCC2 [Example 106, 6-chloro-3-(3-((2,3-dihydro-1H-inden-4-yl)oxy)propyl)-N-(methylsulfonyl)-1H-indole-2-carboxamide] | 5.00 to 6.00 |
| Cc1cc(OCCCc2c(C(=O)NS(=O)(=O)CCCNC3CCCCC3)[nH]c3ccccc23)cc(C)c1Cl [Example 145, 3-(3-(4-chloro-3,5-dimethylphenoxy)propyl)-N-((3-(cyclohexylamino)propyl)sulfonyl)-1H-indole-2-carboxamide] | 5.00 to 6.00 |
| Cc1cc(OCCCc2c(C(=O)NS(=O)(=O)CCNC(=O)c3cccc(Oc4ccccc4)c3)[nH]c3cc(Cl)ccc23)cc(C)c1Cl [Example 231, 6-chloro-3-(3-(4-chloro-3,5-dimethylphenoxy)propyl)-N-((2-(3-phenoxybenzamido)ethyl)sulfonyl)-1H-indole-2-carboxamide] | 6.52 to 7.00 |
| Cc1cc(OCCCc2c(C(=O)NS(=O)(=O)c3ccccc3)[nH]c3c(-c4cnn(C)c4)ccc(Cl)c23)cc(C)c1Cl [Example 122, 4-chloro-3-(3-(4-chloro-3,5-dimethylphenoxy)propyl)-7-(1-methyl-1H-pyrazol-4-yl)-N-(phenylsulfonyl)-1H-indole-2-carboxamide] | 6.30 to 6.52 |
| Cc1cc(OCCCc2c(C(=O)NS(=O)(=O)CCNC(=O)c3cn[nH]c3)[nH]c3ccccc23)cc(C)c1Cl [Example 182, N-((2-(1H-pyrazole-4-carboxamido)ethyl)sulfonyl)-3-(3-(4-chloro-3,5-dimethylphenoxy)propyl)-1H-indole-2-carboxamide] | 5.00 to 6.00 |
| Cc1cc(OCCCc2c(C(=O)NS(=O)(=O)CCNC(=O)c3ccc4ccccc4c3)[nH]c3ccccc23)cc(C)c1Cl [Example 162, N-((2-(2-naphthamido)ethyl)sulfonyl)-3-(3-(4-chloro-3,5-dimethylphenoxy)propyl)-1H-indole-2-carboxamide] | 6.30 to 6.52 |
| Cc1cc(OCCCc2c(C(=O)NS(=O)(=O)CCNC(=O)c3ccc4c(ccn4C)c3)[nH]c3ccccc23)cc(C)c1Cl [Example 196, 3-(3-(4-chloro-3,5-dimethylphenoxy)propyl)-N-((2-(1-methyl-1H-indole-5-carboxamido)ethyl)sulfonyl)-1H-indole-2-carboxamide] | 6.30 to 6.52 |
| Cc1cc(OCCCc2c(C(=O)NS(=O)(=O)CCNC(=O)Cc3ccc(Br)cc3)[nH]c3ccccc23)cc(C)c1Cl [Example 169, N-((2-(2-(4-bromophenyl)acetamido)ethyl)sulfonyl)-3-(3-(4-chloro-3,5-dimethylphenoxy)propyl)-1H-indole-2-carboxamide] | 6.30 to 6.52 |
| Cc1cc(OCCCc2c(C(=O)NS(C)(=O)=O)[nH]c3cccc(C(F)(F)F)c23)ccc1Cl [Example 80, 3-(3-(4-chloro-3-methylphenoxy)propyl)-N-(methylsulfonyl)-4-(trifluoromethyl)-1H-indole-2-carboxamide] | 6.52 to 7.00 |
| O=C(O)c1sc2c(NCc3ccccc3)cccc2c1CCCOc1cccc2ccccc12 [Example 73, 7-(benzylamino)-3-(3-(naphthalen-1-yloxy)propyl)benzo[b]thiophene-2-carboxylic acid] | 5.00 to 6.00 |
| Cc1cc(OCCCc2c(C(=O)NS(=O)(=O)CCNS(=O)(=O)c3ccccc3)[nH]c3ccccc23)cc(C)c1Cl [Example 146, 3-(3-(4-chloro-3,5-dimethylphenoxy)propyl)-N-((2-(phenylsulfonamido)ethyl)sulfonyl)-1H-indole-2-carboxamide] | 6.52 to 7.00 |
| Cc1cc(OCCCc2c(C(=O)NS(=O)(=O)c3cccc(C(=O)NC4CCOCC4)c3)[nH]c3ccccc23)cc(C)c1Cl [Example 202, 3-(3-(4-chloro-3,5-dimethylphenoxy)propyl)-N-((3-((tetrahydro-2H-pyran-4-yl)carbamoyl)phenyl)sulfonyl)-1H-indole-2-carboxamide] | 6.52 to 7.00 |
| Cc1cc(OCCCc2c(C(=O)NS(=O)(=O)c3ccccc3)[nH]c3c(-c4ccoc4)cccc23)cc(C)c1Cl [Example 87, 3-(3-(4-chloro-3,5-dimethylphenoxy)propyl)-7-(furan-3-yl)-N-(phenylsulfonyl)-1H-indole-2-carboxamide] | 6.52 to 7.00 |
| Cc1cc(C(=O)NCCS(=O)(=O)NC(=O)c2[nH]c3ccccc3c2CCCOc2cc(C)c(Cl)c(C)c2)c(C)o1 [Example 159, 3-(3-(4-chloro-3,5-dimethylphenoxy)propyl)-N-((2-(2,5-dimethylfuran-3-carboxamido)ethyl)sulfonyl)-1H-indole-2-carboxamide] | 6.52 to 7.00 |
| CCC(=O)NCCS(=O)(=O)NC(=O)c1[nH]c2cc(Cl)ccc2c1CCCOc1cc(C)c(Cl)c(C)c1 [Example 252, 6-chloro-3-(3-(4-chloro-3,5-dimethylphenoxy)propyl)-N-((2-propionamidoethyl)sulfonyl)-1H-indole-2-carboxamide] | 6.52 to 7.00 |
| Cc1cc(OCCCc2c(C(=O)NS(=O)(=O)CCNC(=O)c3cccn3-c3ccccc3)[nH]c3ccccc23)cc(C)c1Cl [Example 172, 3-(3-(4-chloro-3,5-dimethylphenoxy)propyl)-N-((2-(1-phenyl-1H-pyrrole-2-carboxamido)ethyl)sulfonyl)-1H-indole-2-carboxamide] | 6.52 to 7.00 |
| COc1cccc(Cn2cccc2C(=O)NCCS(=O)(=O)NC(=O)c2[nH]c3cc(Cl)ccc3c2CCCOc2cc(C)c(Cl)c(C)c2)c1 [Example 247, 6-chloro-3-(3-(4-chloro-3,5-dimethylphenoxy)propyl)-N-((2-(1-(3-methoxybenzyl)-1H-pyrrole-2-carboxamido)ethyl)sulfonyl)-1H-indole-2-carboxamide] | 6.52 to 7.00 |
| Cc1cc(OCCCc2c(C(=O)NS(=O)(=O)c3ccc(Oc4ccc(Cl)c(Cl)c4)cc3)[nH]c3cc(Cl)ccc23)cc(C)c1Cl [Example 221, 6-chloro-3-(3-(4-chloro-3,5-dimethylphenoxy)propyl)-N-((4-(3,4-dichlorophenoxy)phenyl)sulfonyl)-1H-indole-2-carboxamide] | 6.30 to 6.52 |
